10 molecules from ChEMBL document CHEMBL1212927, “Synthesis and structure-activity relationships of novel 8a-aza-8a-homoerythromycin A ketolides” (2010) can be followed below.

Converted amounts (≈) assume the structure as drawn.

The test system of test [1] is Streptococcus pneumoniae. The test can be described thus: Antibacterial activity against efflux-resistant Streptococcus pneumoniae B0326 by agar microdilution method. It counts as functional.
Test [2] concerns Streptococcus pyogenes. The test can be described thus: Antibacterial activity against constitutive macrolide-lincosamide-streptogramin B-resistant Streptococcus pyogenes B0544 by agar microdilution method. It counts as functional.
The test system of test [3] is Staphylococcus aureus. Nature of the test: Antibacterial activity against erythromycin A-susceptible Staphylococcus aureus B0329 by agar microdilution method.
Test [4] concerns Haemophilus influenzae. The test can be described thus: Antibacterial activity against Haemophilus influenzae B0529 by agar microdilution method. It counts as functional.
Test [5] relates to Moraxella catarrhalis. The test can be described thus: Antibacterial activity against Moraxella catarrhalis B0324 by agar microdilution method. It counts as functional.
Test [6] concerns Streptococcus pneumoniae. The test can be described thus: Antibacterial activity against constitutive macrolide-lincosamide-streptogramin B-resistant Streptococcus pneumoniae B0627 by agar microdilution method. It counts as functional.
Test [7] concerns Staphylococcus aureus. The test can be described thus: Antibacterial activity against efflux-resistant Staphylococcus aureus B0331 by agar microdilution method. It counts as functional.
Test [8] has as its system Streptococcus pyogenes. Nature of the test: Antibacterial activity against efflux-resistant Streptococcus pyogenes B0545 by agar microdilution method. It counts as functional.
Test [9] relates to Staphylococcus aureus. Nature of the test: Antibacterial activity against inducible macrolide-lincosamide-streptogramin B-resistant Staphylococcus aureus B0538 by agar microdilution method. It counts as functional.
For test [10], the system named is Streptococcus pyogenes. The test can be described thus: Antibacterial activity against erythromycin A-susceptible Streptococcus pyogenes B0542 by agar microdilution method.
Test [11] concerns Streptococcus pyogenes. The test can be described thus: Antibacterial activity against inducible macrolide-lincosamide-streptogramin B-resistant Streptococcus pyogenes B0543 by agar microdilution method. It counts as functional.
Test [12] has as its system Streptococcus pneumoniae. Nature of the test: Antibacterial activity against erythromycin-susceptible Streptococcus pneumoniae B0541 by agar microdilution method.
Test [13] has as its system Staphylococcus aureus. Nature of the test: Antibacterial activity against constitutive macrolide-lincosamide-streptogramin B-resistant Staphylococcus aureus B0330 by agar microdilution method. It counts as functional.

In the case of `C=CCO[C@]1(C)C[C@@H](C)NC(=O)[C@H](C)[C@@H](O)[C@](C)(O)[C@@H](CC)OC(=O)[C@H](C)C(=O)[C@H](C)[C@H]1O[C@@H]1O[C@H](C)C[C@H](N(C)C)[C@H]1O`, the MIC in [1] is 4 µg/mL (≈ 6.36 µM); in test [2] it was above 64 µg/mL; in [3] it was 8 µg/mL (≈ 12.7 µM); in [4], 16 µg/mL (≈ 25.4 µM); in test [5] it was 8 µg/mL (≈ 12.7 µM); in [6], above 64 µg/mL. The MIC in test [7] is 16 µg/mL (≈ 25.4 µM); in [8] it was 8 µg/mL (≈ 12.7 µM); in test [9] it was above 64 µg/mL; in [10], 4 µg/mL (≈ 6.36 µM); in test [11], above 64 µg/mL; in test [12] it was 1 µg/mL (≈ 1.59 µM). This molecule also returned an MIC in test [13] above 64 µg/mL.

Take `CC[C@H]1OC(=O)[C@H](C)C(=O)[C@H](C)[C@@H](O[C@@H]2O[C@H](C)C[C@H]([N+](C)(C)[O-])[C@H]2O)[C@](C)(OCC2CO2)C[C@@H](C)NC(=O)[C@H](C)[C@@H](O)[C@]1(C)O` (stereo not given in full): the MIC in test [1], in [2], in test [3], in test [4], in test [5] and in test [6] was above 64 µg/mL throughout. Further, the MIC in test [7], in [8], in test [9], in [10], in test [11] and in test [12] was above 64 µg/mL throughout. Also, the MIC in [13] is above 64 µg/mL.

Turning to `CC[C@H]1OC(=O)[C@H](C)C(=O)[C@H](C)[C@@H](O[C@@H]2O[C@H](C)C[C@H](N(C)C)[C@H]2O)[C@](C)(OCC2CO2)C[C@@H](C)NC(=O)[C@H](C)[C@@H](O)[C@]1(C)O` (stereo not given in full), the MIC in test [1] is 8 µg/mL (≈ 12.4 µM); in test [2], above 64 µg/mL; in test [3], 4 µg/mL (≈ 6.2 µM); in test [4] it was 32 µg/mL (≈ 49.6 µM); in [5] it was 16 µg/mL (≈ 24.8 µM); in test [6] it was above 64 µg/mL. Moreover, the MIC in test [7] was 16 µg/mL (≈ 24.8 µM); in test [8], 8 µg/mL (≈ 12.4 µM); in test [9], above 64 µg/mL; in test [10], 4 µg/mL (≈ 6.2 µM); in [11], above 64 µg/mL; in test [12], 2 µg/mL (≈ 3.1 µM). For the same molecule, in [13], the MIC was above 64 µg/mL.

For `CC[C@H]1OC(=O)[C@H](C)C(=O)[C@H](C)[C@@H](O[C@@H]2O[C@H](C)C[C@H](N(C)C)[C@H]2O)[C@](C)(OCC(O)CNCCCc2ccccc2)C[C@@H](C)NC(=O)[C@H](C)[C@@H](O)[C@]1(C)O` (stereo not given in full), the MIC was 8 µg/mL (≈ 10.3 µM) in [1]; 16 µg/mL (≈ 20.5 µM) in [2]; 4 µg/mL (≈ 5.13 µM) in [3]; 16 µg/mL (≈ 20.5 µM) in test [4]; 1 µg/mL (≈ 1.28 µM) in [5]; 8 µg/mL (≈ 10.3 µM) in test [6]. Besides, the MIC in test [7] came to 8 µg/mL (≈ 10.3 µM); in test [8], 1 µg/mL (≈ 1.28 µM); in test [9], 8 µg/mL (≈ 10.3 µM); in test [10] it was 0.25 µg/mL (≈ 0.321 µM); in [11] it was 1 µg/mL (≈ 1.28 µM); in test [12], 0.25 µg/mL (≈ 0.321 µM). This molecule also came in with an MIC in test [13] above 64 µg/mL.

As for `CC[C@H]1OC(=O)[C@H](C)C(=O)[C@H](C)[C@@H](O[C@@H]2O[C@H](C)C[C@H](N(C)C)[C@H]2O)[C@](C)(OCC(O)CNCCc2cccnc2)C[C@@H](C)NC(=O)[C@H](C)[C@@H](O)[C@]1(C)O` (stereo not given in full), the MIC in test [1] came out at 8 µg/mL (≈ 10.4 µM); in [2], 32 µg/mL (≈ 41.7 µM); in test [3] it was 4 µg/mL (≈ 5.22 µM); in [4], 8 µg/mL (≈ 10.4 µM); in test [5], 1 µg/mL (≈ 1.3 µM); in [6] it was 2 µg/mL (≈ 2.61 µM). The MIC was 4 µg/mL (≈ 5.22 µM) in test [7]; 2 µg/mL (≈ 2.61 µM) in test [8]; 8 µg/mL (≈ 10.4 µM) in test [9]; 0.25 µg/mL (≈ 0.326 µM) in [10]; 4 µg/mL (≈ 5.22 µM) in test [11]; 0.5 µg/mL (≈ 0.652 µM) in test [12]. Further, the MIC in [13] is above 64 µg/mL.

In the case of `CC[C@H]1OC(=O)[C@H](C)C(=O)[C@H](C)[C@@H](O[C@@H]2O[C@H](C)C[C@H](N(C)C)[C@H]2O)[C@](C)(OCC(O)CNCCCc2cccnc2)C[C@@H](C)NC(=O)[C@H](C)[C@@H](O)[C@]1(C)O` (stereo not given in full), the MIC in test [1] was 4 µg/mL (≈ 5.12 µM); in test [2] it was 16 µg/mL (≈ 20.5 µM); in test [3] it was 2 µg/mL (≈ 2.56 µM); in test [4] it was 16 µg/mL (≈ 20.5 µM); in test [5], 0.5 µg/mL (≈ 0.64 µM); in [6], 1 µg/mL (≈ 1.28 µM). The MIC was 4 µg/mL (≈ 5.12 µM) in [7]; 1 µg/mL (≈ 1.28 µM) in test [8]; 4 µg/mL (≈ 5.12 µM) in test [9]; at most 0.125 µg/mL in test [10]; 0.5 µg/mL (≈ 0.64 µM) in [11]; 0.25 µg/mL (≈ 0.32 µM) in test [12]. In addition, the MIC in test [13] is above 64 µg/mL.

Consider `CC[C@H]1OC(=O)[C@H](C)C(=O)[C@H](C)[C@@H](O[C@@H]2O[C@H](C)C[C@H](N(C)C)[C@H]2O)[C@](C)(OCC(O)CNCCCCc2cccnc2)C[C@@H](C)NC(=O)[C@H](C)[C@@H](O)[C@]1(C)O` (stereo not given in full), for which the MIC in test [1] was 1 µg/mL (≈ 1.26 µM); in test [2], 4 µg/mL (≈ 5.03 µM); in test [3], 0.5 µg/mL (≈ 0.629 µM); in [4] it was 2 µg/mL (≈ 2.52 µM); in test [5], at most 0.125 µg/mL; in test [6], 0.5 µg/mL (≈ 0.629 µM). The MIC was 1 µg/mL (≈ 1.26 µM) in [7]; 0.5 µg/mL (≈ 0.629 µM) in test [8]; 1 µg/mL (≈ 1.26 µM) in test [9]; at most 0.125 µg/mL in test [10]; at most 0.125 µg/mL in [11]; at most 0.125 µg/mL in [12]. Further, the MIC in test [13] is above 64 µg/mL.

For the molecule `CC[C@H]1OC(=O)[C@H](C)C(=O)[C@H](C)[C@@H](O[C@@H]2O[C@H](C)C[C@H](N(C)C)[C@H]2O)[C@](C)(OCC(O)CNCCCCc2ccccn2)C[C@@H](C)NC(=O)[C@H](C)[C@@H](O)[C@]1(C)O` (stereo not given in full), the MIC was 4 µg/mL (≈ 5.03 µM) in test [1]; 32 µg/mL (≈ 40.3 µM) in test [2]; 1 µg/mL (≈ 1.26 µM) in [3]; 4 µg/mL (≈ 5.03 µM) in test [4]; at most 0.125 µg/mL in [5]; 2 µg/mL (≈ 2.52 µM) in test [6]. Moreover, the MIC was 2 µg/mL (≈ 2.52 µM) in test [7]; 1 µg/mL (≈ 1.26 µM) in test [8]; 4 µg/mL (≈ 5.03 µM) in [9]; 0.25 µg/mL (≈ 0.314 µM) in [10]; 0.5 µg/mL (≈ 0.629 µM) in test [11]; at most 0.125 µg/mL in test [12]. Further, the MIC in [13] is above 64 µg/mL.

For `CC[C@H]1OC(=O)[C@H](C)C(=O)[C@H](C)[C@@H](O[C@@H]2O[C@H](C)C[C@H](N(C)C)[C@H]2O)[C@](C)(OCC(O)CN2CCN(c3ccc(F)cc3)CC2)C[C@@H](C)NC(=O)[C@H](C)[C@@H](O)[C@]1(C)O` (stereo not given in full), the MIC was 16 µg/mL (≈ 19.4 µM) in [1]; above 64 µg/mL in [2]; 4 µg/mL (≈ 4.85 µM) in test [3]; 32 µg/mL (≈ 38.8 µM) in test [4]; 4 µg/mL (≈ 4.85 µM) in test [5]; 32 µg/mL (≈ 38.8 µM) in test [6]. Further, the MIC in test [7] is 16 µg/mL (≈ 19.4 µM); in [8], 4 µg/mL (≈ 4.85 µM); in [9] it was 16 µg/mL (≈ 19.4 µM); in test [10], at most 0.125 µg/mL; in test [11], 4 µg/mL (≈ 4.85 µM); in [12], 0.5 µg/mL (≈ 0.606 µM). In test [13], this molecule yielded an MIC above 64 µg/mL.

As to `CC[C@H]1OC(=O)[C@H](C)C(=O)[C@H](C)[C@@H](O[C@@H]2O[C@H](C)C[C@H](N(C)C)[C@H]2O)[C@](C)(OCC(O)CN2CCN(c3ccc([N+](=O)[O-])cc3)CC2)C[C@@H](C)NC(=O)[C@H](C)[C@@H](O)[C@]1(C)O` (stereo not given in full), the MIC in test [1] is 2 µg/mL (≈ 2.35 µM); in [2], 8 µg/mL (≈ 9.39 µM); in test [3], 1 µg/mL (≈ 1.17 µM); in test [4] it was 8 µg/mL (≈ 9.39 µM); in [5], 0.5 µg/mL (≈ 0.587 µM); in test [6], 4 µg/mL (≈ 4.69 µM). Further, the MIC in test [7] is 2 µg/mL (≈ 2.35 µM); in [8], 1 µg/mL (≈ 1.17 µM); in [9] it was 2 µg/mL (≈ 2.35 µM); in test [10], 0.25 µg/mL (≈ 0.293 µM); in test [11], 2 µg/mL (≈ 2.35 µM); in [12] it was at most 0.125 µg/mL. Further, the MIC in [13] is above 64 µg/mL.
